Data set [1] is described as follows: Cassette PK study with 22, 25 and 26. Format: in vivo, female Balb/c mice. As to conditions: i.v. bolus cassette 0.5 mg/kg; for AUC(0-t) / clearance: female, Balb/c, mouse, iv, whole blood; for clearance: read-out: Cl_obs. An excerpt:
Fifteen female mice of the Balb/c strain were obtained from Charles River Laboratories, UK. Animals were maintained under a 12-h light/12-h dark cycle, in Thoren mouse caging containing EC0 aspen bedding (DBM, UK), with 'Sizzlenest' and 'Rodent Rolls' nesting material (DBM). Enrichment materials included aspen chew sticks, cardboard houses, tunnels, swings, and sunflower seeds. All animals had ad libitum access to food (5LF2 Extruded Diet, IPS Ltd, UK) and tap water throughout. Temperature and relative humidity were maintained between 19 °C–24 °C and 45%–65%, respectively. All animals received a minimum of 10 days of acclimatisation prior to the start of the study.
The cassette formulation (22, 25 and 26) was prepared by producing separate stock solutions of each compound dissolved in DMSO (dimethyl sulfoxide) at a concentration of 6 mg/mL. Aliquots of each stock solution were combined in equal parts to produce a stock solution containing 2 mg/mL of each compound. This solution was then diluted with Polyethylene glycol 400 (PEG400), followed by drop-wise addition of sterile water. The final formulation consisted of 5% DMSO, 40% PEG400, and 55% water, and contained 0.1 mg/mL of each compound. For the cassette PK study, three female Balb/c mice were dosed via a bolus intravenous injection at a dose level of 0.5 mg/kg per compound (5 mL/kg). Serial blood samples (10 µL per sample) were collected from the lateral tail vein of each mouse at 5, 15 and 30 min, 1, 2, 4, 6, 8, and 24 h after dose administration. All blood samples were diluted into 90 µL of Milli‑Q ultrapure water and stored at −20 °C prior to bioanalysis. The concentration of 22, 25 and 26 in blood and brain was determined by UPLC-MS/MS.
Blood samples (10 µL) from study mice were diluted 1× with 90 µL of water immediately when the sample was taken. All calibration, quality control, blanks and double blank samples (all 100 µL volume) were mixed (vortexed) with 300 µL of LCMS grade acetonitrile to precipitate proteins.
For study samples, a volume (30 µL) was mixed (vortexed) with a volume (90 µL) of acetonitrile to precipitate proteins. After protein precipitation, all samples were centrifuged to pellet the proteins. Study samples in Micronics tubes were centrifuged using a Beckman Coutler Allegra C-12R Centrifuge for 10 min at 3750 rpm. All other samples in Eppendorf tubes were centrifuged using a Sigma SciQuip 1–14 centrifuge for 10 min (14,800 rpm/16,163 × g). Supernatant from study samples (80 µL) and calibration samples, QCs, blanks, and double blanks (200 µL) were then transferred to HPLC glass vials containing Milli-Q water (40 µL or 100 µL, respectively), ready for LCMS analysis.

A short description of data set [2]: Plasma protein binding, equilibrium dialysis, human. Format: in vitro ADME. As to conditions: 5 h dialysis, read-out: Plasma Protein Binding (Fu) Hu. How it is done:
(§1) A 96-well equilibrium dialysis apparatus was used to determine the free fraction in plasma for each compound (HT Dialysis LLC, Gales Ferry, CT). Membranes (12–14 kDA cut-off) were conditioned in deionised water for 60 min, followed by conditioning in 80:20 deionised water: ethanol for 20 min, and then rinsed in isotonic buffer before use. Female CD1 mouse, Male rat Han Wistar and human plasma was removed from the freezer and allowed to thaw on the day of experiment. Thawed plasma was then centrifuged (Allegra X12-R, Beckman Coulter, USA), spiked with test compound (final concentration 10 μg/mL), and 150 μL aliquots (n = 6 replicate determinations) loaded into the 96-well equilibrium dialysis plate. Dialysis vs isotonic buffer (150 μL) was carried out for 5 h in a temperature-controlled incubator at ca. 37 °C (Barworld Scientific Ltd, UK) using an orbital microplate shaker at 100 revolutions/minute (Barworld Scientific Ltd, UK). At the end of the incubation period, 50 μL aliquots of plasma or buffer were transferred to a 96-well 2.1 mL Waters ^TM plate and the composition in each well balanced with control fluid (50 μL), such that the volume of buffer to plasma is the same. […] All samples were analysed by UPLC-MS/MS. The unbound fraction was determined as the ratio of the peak area in buffer to that in plasma.
In general terms: In equilibrium dialysis free small molecules cross a membrane that holds back macromolecules.

Data set [3] has as its target T1, GSK3β-HiBiT (Homo sapiens, UniProt P49841).
T1 construct: we generated endogenously tagged GSK3β-HiBiT knock-in (KI) HEK293 cells; endogenous in cells; host or cells: GSK3β-HiBiT KI HEK293 cells, transiently transfected with LgBit (Promega)
In words: Kinetic live cell degradation assay (LgBit transfected GSK3β-HiBiT KI HEK293 cells). Format: cell-based. How it is done:
For kinetic degradation assays, GSK3β-HiBiT KI HEK293 cells were reverse transfected into white bottom opaque 96-well assay plates. Briefly, GSK3β-HiBiT KI HEK293 cell suspension at a density of 2 × 10^6 per mL was prepared in standard culturing media. 10 mL of cell suspension mixed with transfection mix (1 mL of OptiMEM (Gibco) containing 3:1 ratio of FuGENE HD (Promega) and LgBit (Promega)). Then, cells were seeded into 96-well assay plate as a 100 µL cell suspension per well. After 24 h of transfection, the cell media was removed and 90 µL of CO2-independent medium supplemented with 10% FBS (Gibco) and 1:100 dilution of Endurazine (Promega) and incubated for 2.5 h at 37 °C. Test compounds were added onto cells and luminescence signals were monitored and recorded on GloMAX discover plate reader (Promega) in kinetic mode every 5 min. Data were normalised to DMSO conditions and plotted over time and degradation rates were calculated via Michaelis–Menten non-linear fitting analysis using GraphPad Prism (v10.1.2).
Background: The HiBiT peptide binds its large partner to form an active luciferase.

Data set [4] is described as follows: Plasma protein binding, equilibrium dialysis, rat. As to conditions: male, Han Wistar, 5 h dialysis, read-out: Plasma Protein Binding (Fu) Rat. Format: in vitro ADME. The procedure:
as §1

T1 sequence (P49841 whole entry): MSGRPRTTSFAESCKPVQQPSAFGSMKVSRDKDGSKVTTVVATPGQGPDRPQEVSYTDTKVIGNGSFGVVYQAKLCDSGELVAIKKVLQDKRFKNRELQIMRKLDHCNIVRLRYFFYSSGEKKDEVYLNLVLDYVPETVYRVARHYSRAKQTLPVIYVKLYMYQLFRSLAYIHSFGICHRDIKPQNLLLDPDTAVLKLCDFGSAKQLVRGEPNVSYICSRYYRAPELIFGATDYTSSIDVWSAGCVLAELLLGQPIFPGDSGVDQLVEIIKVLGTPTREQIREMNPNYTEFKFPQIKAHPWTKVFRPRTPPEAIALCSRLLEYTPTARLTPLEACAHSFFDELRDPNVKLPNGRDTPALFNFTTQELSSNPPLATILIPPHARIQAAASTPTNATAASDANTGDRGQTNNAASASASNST
T1 sequence (Q96SW2 whole entry partner): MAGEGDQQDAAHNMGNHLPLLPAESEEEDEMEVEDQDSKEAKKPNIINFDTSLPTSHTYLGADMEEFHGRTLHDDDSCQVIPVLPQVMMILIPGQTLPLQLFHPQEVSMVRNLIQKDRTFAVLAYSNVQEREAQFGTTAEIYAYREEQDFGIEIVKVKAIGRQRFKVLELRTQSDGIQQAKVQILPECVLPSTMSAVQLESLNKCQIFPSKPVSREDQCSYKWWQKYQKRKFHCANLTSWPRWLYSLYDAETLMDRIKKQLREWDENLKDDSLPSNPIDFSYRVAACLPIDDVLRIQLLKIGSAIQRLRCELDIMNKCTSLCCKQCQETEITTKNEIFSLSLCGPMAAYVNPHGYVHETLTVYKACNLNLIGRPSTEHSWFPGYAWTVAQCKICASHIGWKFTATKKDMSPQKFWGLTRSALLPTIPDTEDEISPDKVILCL

For orientation: AUC(0-t) means the area under the concentration-time curve up to a stated or last time point. As to `O=C1CCC(NC(=O)c2ccc(CN3CCN(Cc4ccc(-c5cn(-c6ccc(-c7cn8nccc(C(=O)Nc9cnccc9N9CCOCC9)c8n7)cc6)nn5)nc4)CC3)cn2)C(=O)N1` (stereo not shown) [compound 22], in data set [1], the AUC(0-t) was 444 ng·h/mL, the clearance stood at 12 mL/min/kg, the Cl_obs entry was “moderate” and the Half_Life came out at 2.8 h. The Vss_obs in data set [1] stood at 2.8 L/kg.

`Cn1nc(N2CCC(=O)NC2=O)c2ccc(CN3CCN(Cc4ccc(-c5cn(-c6ccc(-c7cn8nccc(C(=O)Nc9cnccc9N9CCOCC9)c8n7)cc6)nn5)nc4)CC3)cc21` [compound 24]: the fraction unbound at 5 h, 10 μg/mL in data set [2] was found to be 0.0072; in data set [4], 0.00064. The “maximal degradation rate (λmax)” value in data set [3] (live cell, Michaelis-Menten fit) is ~ 1.0 h^−1.

On to `Cn1nc(N2CCC(=O)NC2=O)c2ccc(CN3CCN(CCCc4cn(-c5ccc(-c6cn7nccc(C(=O)Nc8cnccc8N8CCOCC8)c7n6)cc5)nn4)CC3)cc21` [compound 26], for which the fraction unbound at 5 h, 10 μg/mL in data set [2] was 0.05. Moreover, in data set [1], the AUC(0-t) was 590 ng·h/mL, the clearance turned out to be 8 mL/min/kg, the Cl_obs entry was “moderate” and the Half_Life turned out to be 2.7 h. Moreover, the Vss_obs in data set [1] is recorded as 1.9 L/kg. Further, in data set [3] (10 nM, after 2 h), the “degradation of GSK3β in live cells” value is reported as “almost complete degradation”. For the same molecule, in data set [4], the fraction unbound at 5 h, 10 μg/mL was 0.01.

The values are drawn from publication PMC12501029, “Discovery of a CNS active GSK3 degrader using orthogonally reactive linker screening” (Nature Communications, 2025).
